What was measured:
Assay type in all cases: cell-based
Conditions in all cases: screening for activators, at least three concentrations of each drug
Sea lamprey VDR = molecular target: T1, Sea lamprey VDR (Petromyzon marinus, UniProt Q7ZZY9)
T1 sequence (Q7ZZY9 92-406): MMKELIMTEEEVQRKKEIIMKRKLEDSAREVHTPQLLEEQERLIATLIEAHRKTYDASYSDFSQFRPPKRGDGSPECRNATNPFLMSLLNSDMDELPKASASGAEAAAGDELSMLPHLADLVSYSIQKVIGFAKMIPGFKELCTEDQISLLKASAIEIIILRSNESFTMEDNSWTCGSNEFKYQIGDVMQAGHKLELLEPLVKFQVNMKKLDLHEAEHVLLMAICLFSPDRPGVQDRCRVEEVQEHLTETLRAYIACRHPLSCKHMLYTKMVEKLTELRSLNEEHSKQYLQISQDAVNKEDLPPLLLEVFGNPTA

Xenopus laevis VDR = molecular target: T2, Xenopus laevis VDR (Xenopus laevis, UniProt O13124); test: luciferase reporter transactivation assay in HepG2-NTCP cells, GAL4/xlVDR LBD chimera with tk-UAS-Luc
T2 sequence (O13124 90-422): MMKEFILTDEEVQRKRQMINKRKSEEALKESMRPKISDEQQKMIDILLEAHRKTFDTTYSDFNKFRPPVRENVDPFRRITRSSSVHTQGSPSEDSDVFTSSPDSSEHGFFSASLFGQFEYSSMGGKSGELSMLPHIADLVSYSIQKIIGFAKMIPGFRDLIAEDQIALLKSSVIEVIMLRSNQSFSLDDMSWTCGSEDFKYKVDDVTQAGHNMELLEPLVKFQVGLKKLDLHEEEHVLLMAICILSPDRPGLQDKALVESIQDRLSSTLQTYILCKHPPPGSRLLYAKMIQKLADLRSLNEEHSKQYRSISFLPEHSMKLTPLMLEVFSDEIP

Zebrafish VDR = molecular target: T3, Zebrafish VDR (Danio rerio, UniProt Q9PTN2); test: luciferase reporter transactivation assay in HepG2-NTCP cells, GAL4/zfVDR LBD chimera with tk-UAS-Luc
T3 sequence (Q9PTN2 121-453): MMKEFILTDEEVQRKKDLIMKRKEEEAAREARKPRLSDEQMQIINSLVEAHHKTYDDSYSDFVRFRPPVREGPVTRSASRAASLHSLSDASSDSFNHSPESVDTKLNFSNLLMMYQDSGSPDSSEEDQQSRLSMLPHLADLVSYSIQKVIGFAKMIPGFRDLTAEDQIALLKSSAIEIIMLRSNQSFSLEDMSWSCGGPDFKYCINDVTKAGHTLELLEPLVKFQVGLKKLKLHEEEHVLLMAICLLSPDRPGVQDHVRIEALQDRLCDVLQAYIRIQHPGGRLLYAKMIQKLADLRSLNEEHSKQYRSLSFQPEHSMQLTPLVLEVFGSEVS

SMILES | Effect on sea lamprey VDR (Sea lamprey VDR) | Effect on Xenopus laevis VDR (Xenopus laevis VDR) | Effect on zebrafish VDR (Zebrafish VDR)
CC[C@@]1(O)CC[C@H]2[C@@H]3CC=C4C[C@@H](OS(=O)(=O)O)CC[C@]4(C)[C@H]3CC[C@@]21C [5-Pregnen-3b,17-diol 3-sulfate] | No effect | No effect | No effect
CCCc1c(OCCCCc2nnn[nH]2)ccc(C(C)=O)c1O [LY 171883] | No effect | No effect | No effect
CC(=O)[C@H]1CC[C@H]2[C@@H]3CC[C@H]4C[C@H](O)CC[C@]4(C)[C@H]3CC[C@]12C [5a-pregnan-3a-ol-20-one] | No effect | No effect | No effect
CC(C)=CCC/C(C)=C/CC/C(C)=C/CO [Farnesol] | No effect | No effect | No effect
CC(=O)N1CCN(c2ccc(OCC3COC(Cn4ccnc4)(c4ccc(Cl)cc4Cl)O3)cc2)CC1 (stereo not drawn) [Ketoconazole] | No effect | No effect | No effect
C[C@H](CCC(=O)NCC(=O)O)[C@H]1CC[C@H]2[C@@H]3CC[C@@H]4C[C@H](OS(=O)(=O)O)CC[C@]4(C)[C@H]3CC[C@]12C [Glycolithocholic acid 3-sulfate] | No effect | No effect | No effect
CC1=CC(=O)c2ccccc2C1=O [Vitamin K3] | No effect | No effect | No effect
N[C@@H](Cc1cc(I)c(O)c(I)c1)C(=O)O.O.O [3,5-Diiodo-L-tyroside dihydrate] | No effect | No effect | No effect
COC(=O)[C@H]1[C@H]2C[C@@H]3c4[nH]c5cc(OC)ccc5c4CCN3C[C@H]2C[C@@H](OC(=O)c2cc(OC)c(OC)c(OC)c2)[C@@H]1OC [Reserpine] | No effect | No effect | No effect
Clc1ccccc1C(c1ccccc1)(c1ccccc1)n1ccnc1 [Clotrimazole] | No effect | No effect | No effect
C[C@]12CC[C@@H](O)C[C@H]1CC[C@@H]1[C@@H]2CC[C@]2(C)C(=O)CC[C@@H]12 [Etiocholanolone] | No effect | No effect | No effect
O=C(Nc1ccccc1)c1cc([N+](=O)[O-])ccc1Cl [GW 9662] | No effect | No effect | No effect
C[C@]12CC[C@H]3[C@@H](C[C@H](F)C4=CC(=O)CC[C@@]43C)[C@@H]1CC[C@@H]2O [6a-Fluorotestosterone] | No effect | No effect | No effect
C[C@H](CCC(=O)O)[C@H]1CC[C@H]2[C@@H]3C(=O)C[C@@H]4C[C@H](O)CC[C@]4(C)[C@H]3CC[C@]12C [7-Ketolithocholic acid] | No effect | No effect | No effect
CCCCCCCCCCCCCCSCC(=O)O [Tetradecylthioacetic acid] | No effect | No effect | No effect
O=S(=O)(c1ccccc1)N(CC(F)(F)F)c1ccc(C(O)(C(F)(F)F)C(F)(F)F)cc1 [T-0901317] | None of these three VDRs were activated | None of these three VDRs were activated | None of these three VDRs were activated
C[C@]12CC[C@H]3[C@@H](CCC4=CC(=O)CC[C@@]43C)[C@@H]1CC[C@@H]2C(=O)CO [Cortexone (4-Pregnen-21-ol-3,20-dione), 4-Pregnen-21-ol-3,20-dione] | No effect | No effect | No effect
CC(=O)N[C@@H](CSC/C=C(\C)CCC=C(C)C)C(=O)O [Acetyl-geranyl-cysteine] | No effect | No effect | No effect
C[C@H](CC(=O)O)[C@H]1CC[C@H]2[C@@H]3CC[C@@H]4C[C@H](O)CC[C@]4(C)[C@H]3C[C@H](O)[C@]12C [23-Nordeoxycholic acid] | No effect | No effect | No effect
Cc1c(C)c2c(c(C)c1O)CCC(C)(COc1ccc(CC3SC(=O)NC3=O)cc1)O2 (stereo not drawn) [Troglitazone] | No effect | No effect | No effect
C[C@]12CC[C@@H](O)C[C@@H]1CC[C@@H]1[C@@H]2[C@@H](O)C[C@]2(C)[C@@H](C(=O)CO)CC[C@@H]12 [5a-Pregnan-3a,11b,21-triol-20-one] | No effect | No effect | No effect
Cc1cccc(Nc2cc(Cl)nc(SCC(=O)O)n2)c1C [WY-14643] | No effect | No effect | No effect
CC(CCC(=O)NCC(=O)O)C1CCC2C3C(O)CC4CC(O)CCC4(C)C3CCC12C (stereo not drawn) [Glycochenodeoxycholic acid] | No effect | No effect | No effect
C[C@]12CC[C@@H]3c4cc(O)c(O)cc4CC[C@H]3[C@@H]1CCC2=O [2-Hydroxyestrone] | No effect | No effect | No effect
O=C(O)CCc1cc(I)c(O)c(I)c1 [3,5-Diiodo-4-hydroxyphenylpropionic acid] | No effect | No effect | No effect
C[C@@]12CCC[C@H]1[C@@H]1CC[C@@H]3C[C@@H](O)CC[C@]3(C)[C@H]1CC2 [5b-Androstan-3b-ol] | No effect | No effect | No effect
CC(C)[C@H](C)CC[C@@H](C)[C@H]1CC[C@H]2[C@@H]3CC=C4C[C@@H](O)CC[C@]4(C)[C@H]3CC[C@]12C [Campesterol] | No effect | No effect | No effect
CC(=O)[C@H]1CC[C@H]2[C@@H]3CC[C@@H]4CC(=O)CC[C@]4(C)[C@H]3CC[C@]12C [5b-Pregnan-3,20-dione] | No effect | No effect | No effect
CC(C)=CCC/C(C)=C/CC/C(C)=C/CSCC(=O)O [Farnesylthioacetic acid] | No effect | No effect | No effect
CC1(COc2ccc(CC3SC(=O)NC3=O)cc2)CCCCC1 (stereo not drawn) [Ciglitazone] | No effect | No effect | No effect

Reference: publication PMC2263054, “Functional evolution of the vitamin D and pregnane X receptors” (BMC Evolutionary Biology, 2007)
